According to patent US7244727B2, “Fused bicyclic nitrogen-containing heterocycles” (Japan Tobacco Inc., priority 2002, dated 2007):

Tested on: not given
Assay: not given
Settings: not given

SMILES	melting point
CCc1ccc(C2=Nc3c(N)ncnc3OC2(C)C)cc1	135 to 136 °C
Cc1nc(N)c2c(n1)OCC(c1ccc(Br)cc1)=N2	> 220 °C
CC1(C)Oc2ncnc(N)c2N=C1c1ccc([C@H]2CC[C@H](CCC(=O)O)CC2)cc1	> 250 °C
CC1(C)Oc2ncnc(N)c2N=C1c1ccc(-c2ccc(CC(=O)O)cc2)cc1	> 270 °C
CC1(C)Oc2ncnc(N)c2NC1c1ccc(Br)cc1 (stereo not drawn)	> 220 °C
CCCCc1ccc(C2=Nc3c(N)ncnc3OC2(C)C)cc1	157 to 160 °C
CC1(C)Oc2ncnc(N)c2N=C1c1ccc(F)cc1	189 to 190 °C
CC(C)c1ccc(C2=Nc3c(N)ncnc3OC2(C)C)cc1	175 to 179 °C
CC1(C)Oc2ncnc(N)c2N=C1c1ccc(-c2ccccc2)cc1	218 to 219 °C
Nc1ncnc2c1NC(c1ccc(Br)cc1)CO2 (stereo not drawn)	> 200 °C
CC1(C)Oc2ncnc(N)c2N=C1c1ccc([C@H]2CC[C@H](C(=O)O)CC2)cc1	> 250 °C
Cc1ccc(C2=Nc3c(N)ncnc3OC2(C)C)cc1	161 to 162 °C
CC1(C)Oc2ncnc(N)c2N=C1c1ccc([C@H]2CC[C@H](CS(N)(=O)=O)CC2)cc1	> 250 °C
CC1(C)Oc2ncnc(N)c2N=C1c1ccc(C2CCCCC2)cc1	186 to 187 °C
CC1(C)Oc2ncnc(N)c2N=C1c1ccccc1	189 to 190 °C
CC1Oc2ncnc(N)c2N=C1c1ccc(Br)cc1 (stereo not drawn)	222 to 224 °C
CC1(C)Oc2ncnc(N)c2N=C1c1ccc(C2CCC(=O)CC2)cc1	> 240 °C
CC1(C)Oc2ncnc(N)c2N=C1c1ccc(C(C)(C)C(=O)O)cc1	> 250 °C
Nc1ncnc2c1N=C(c1ccc(Br)cc1)CO2	> 200 °C
CC1(C)Oc2ncnc(N)c2N=C1c1ccc(C(C)(C)C)cc1	220 °C
CC1(C)Oc2ncnc(N)c2N=C1c1ccc([C@H]2CC[C@H](CC(N)=O)CC2)cc1	224 to 226 °C
Cc1nc(N)c2c(n1)OC(C)(C)C(c1ccc([C@H]3CC[C@H](CC(=O)O)CC3)cc1)=N2	> 250 °C
CCCc1ccc(C2=Nc3c(N)ncnc3OC2(C)C)cc1	185 to 186 °C
CC1(C)Oc2ncnc(N)c2N=C1c1ccc([C@H]2CC[C@H](Cc3nn[nH]n3)CC2)cc1	> 250 °C
CC1(C)Oc2ncnc(N)c2N=C1c1ccc(C2CCC(O)CC2)cc1 (stereo not drawn)	246 to 248 °C
CC1(C)Oc2ncnc(N)c2N=C1c1ccc(N2CCOCC2)cc1	214 to 219 °C
CC1(C)Oc2ncnc(N)c2N=C1c1ccc(N2CCCCC2)cc1	191 to 193 °C

The remaining lines, values ahead:

melting point	SMILES
> 282 °C	Cc1nc(N)c2c(n1)OC(C)(C)C(c1ccc([C@H]3CC[C@H](Cc4noc(=O)[nH]4)CC3)c(Cl)c1)=N2 [Example 6-6]
228 to 229 °C	Cc1nc(N)c2c(n1)OC(C)(C)C(c1ccc([C@H]3CC[C@H](CN4CCCC(O)C4=O)CC3)cc1)=N2 (stereo partly drawn) [Example 2-170]
> 280 °C	Cc1nc(N)c2c(n1)OC(C)(C)C(c1ccc([C@H]3CC[C@H](CC(=O)O)CC3)c(O)c1)=N2 [Example 6-7]

Target: T1, human DGAT1 (Homo sapiens, UniProt O75907)
T1 construct: made in house; host or cells: insect cells (sf9, sf21 or High Five) infected with baculovirus; total cell membranes
T1 sequence (O75907 1-488): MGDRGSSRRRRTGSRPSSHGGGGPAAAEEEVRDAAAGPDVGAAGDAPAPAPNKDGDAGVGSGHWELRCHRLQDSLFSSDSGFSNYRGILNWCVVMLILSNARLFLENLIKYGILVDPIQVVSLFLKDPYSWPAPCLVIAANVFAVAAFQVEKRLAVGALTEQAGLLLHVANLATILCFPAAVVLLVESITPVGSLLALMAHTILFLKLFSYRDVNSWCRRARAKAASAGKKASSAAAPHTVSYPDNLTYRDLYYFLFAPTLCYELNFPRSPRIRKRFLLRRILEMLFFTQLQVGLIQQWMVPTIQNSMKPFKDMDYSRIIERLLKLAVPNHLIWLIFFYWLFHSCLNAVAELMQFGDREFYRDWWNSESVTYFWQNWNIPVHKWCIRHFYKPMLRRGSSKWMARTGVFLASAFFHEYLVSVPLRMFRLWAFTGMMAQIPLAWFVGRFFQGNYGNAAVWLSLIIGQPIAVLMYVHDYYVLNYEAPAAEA
Assay: DGAT Scintillation Proximity Assay (SPA) with membranes of insect cells expressing human flagtag DGAT1
Format: biochemical
Settings: read-out: hDGAT1 IC50
Experimental: In such an assay human DGAT1 is cloned from a human liver cDNA library. PCR is used to add a restriction site and flag epitope at the most 5′ end and a restriction site at the 3′ end of the sequence. Thereafter, human flagtag (FT) DGAT1 baculovirus may be generated using a Bac-to-Bac Baculovirus Expression System® (Invitrogen). Insect cells (e.g., sf9, sf2 1, or High Five) are infected for 24 to 72 h and collected by centrifugation. Cell pellets are resuspended in homogenization buffer and lysed using a homogenization device, such as a Microfluidizer. Total cell membranes are collected by ultracentrifugation at 45,000 rpm for 1 h.
A small aliquot (0.2 μg/well) of membrane is incubated with 10 μM compound or mercuric chloride (as positive control for inhibition) in the presence of enzyme substrate, dioleoyl glycerol (200 μM) in 384 well plates, final volume 50 gL per well. […] The reaction is stopped by adding Wheat Germ Agglutinin (WGA) SPA beads (0.2 mg) in mercuric chloride. Cell membranes are allowed to couple to the beads overnight. The signal can be measured using, for example, a Chemiluminescence Image Plate Reader (CLIPR) or TopCount device.

IC50	SMILES
0.01 to 0.1 µM	CC(C(=O)O)[C@H]1CC[C@H](c2ccc(C3=Cc4c(N)ncnc4OC3(C)C)cc2)CC1 (stereo partly drawn) [Example 10-31]
0.01 to 0.1 µM	CC1(C)Oc2ncnc(N)c2N=C1c1ccc([C@H]2CC[C@H](CN)CC2)cc1 [Example 2-63]
0.01 to 0.1 µM	Cc1nc(N)c2c(n1)OC(C)(C)C(c1ccc(C3CCC([C@H](C)C(=O)O)CC3)cc1)=N2 (stereo partly drawn) [Example 9-2]
0.01 to 0.1 µM	CC1(C)Oc2ncnc(N)c2N=C1c1ccc2c(c1)CC[C@@H]1C/C(=C\C(=O)O)CC[C@H]21 [Example 10-2]
0.01 to 0.1 µM	Cc1nc(N)c2c(n1)OC(C)(C)C(c1ccc([C@H]3CC[C@H](CNC(=O)COC(=O)CCC(=O)O)CC3)cc1)=N2 [Example 2-49]
0.01 to 0.1 µM	CC1(C)Oc2ncnc(N)c2N=C1c1ccc(C2CCC(C(O)C(=O)O)CC2)cc1 (stereo not drawn) [Example 10-6]
